Test results published in PubChem BioAssay (NCI).
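GI50 is the concentration that inhibits growth by half. The concentration for full growth arrest is given as TGI.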

Experiments:
Test in all cases: NCI tumour cell line growth inhibition, 384-well format
SW-620 colon = tested on: SW-620 colon
ACHN renal = tested on: ACHN renal
DU-145 prostate = tested on: DU-145 prostate
UACC-257 melanoma = tested on: UACC-257 melanoma
MDA-MB-435 melanoma = tested on: MDA-MB-435 melanoma
SNB-75 CNS = tested on: SNB-75 CNS
HT29 colon = tested on: HT29 colon
MALME-3M melanoma = tested on: MALME-3M melanoma
HCT-116 colon = tested on: HCT-116 colon
PC-3 prostate = tested on: PC-3 prostate
SN12C renal = tested on: SN12C renal
SF-295 CNS = tested on: SF-295 CNS
BT-549 breast = tested on: BT-549 breast
MDA-MB-468 breast = tested on: MDA-MB-468 breast
CCRF-CEM leukemia = tested on: CCRF-CEM leukemia
RXF 393 renal = tested on: RXF 393 renal
NCI-H460 NSCLC = tested on: NCI-H460 NSCLC
HOP-92 NSCLC = tested on: HOP-92 NSCLC
NCI-H226 lung = tested on: NCI-H226 lung
OVCAR-8 ovarian = tested on: OVCAR-8 ovarian
786-0 renal = tested on: 786-0 renal
CAKI-1 renal = tested on: CAKI-1 renal
SK-MEL-2 melanoma = tested on: SK-MEL-2 melanoma
MCF7 breast = tested on: MCF7 breast
SK-MEL-28 melanoma = tested on: SK-MEL-28 melanoma
UO-31 renal = tested on: UO-31 renal
A498 renal = tested on: A498 renal
SF-539 CNS = tested on: SF-539 CNS
T-47D breast = tested on: T-47D breast
HCT-15 colon = tested on: HCT-15 colon
EKVX NSCLC = tested on: EKVX NSCLC
M14 melanoma = tested on: M14 melanoma
A549 NSCLC = tested on: A549 NSCLC
SR leukemia = tested on: SR leukemia
OVCAR-4 ovarian = tested on: OVCAR-4 ovarian
MOLT-4 leukemia = tested on: MOLT-4 leukemia
NCI/ADR-RES ovarian = tested on: NCI/ADR-RES ovarian
HCC-2998 colon = tested on: HCC-2998 colon
MDA-MB-231 breast = tested on: MDA-MB-231 breast
COLO 205 colon = tested on: COLO 205 colon
KM12 colon = tested on: KM12 colon
SNB-19 CNS = tested on: SNB-19 CNS
SK-MEL-5 melanoma = tested on: SK-MEL-5 melanoma
HS 578T breast = tested on: HS 578T breast
UACC-62 melanoma = tested on: UACC-62 melanoma
RPMI-8226 leukemia = tested on: RPMI-8226 leukemia
K-562 leukemia = tested on: K-562 leukemia
SF-268 CNS = tested on: SF-268 CNS
HOP-62 NSCLC = tested on: HOP-62 NSCLC
IGROV1 ovarian = tested on: IGROV1 ovarian
NCI-H522 lung = tested on: NCI-H522 lung
TK-10 renal = tested on: TK-10 renal
NCI-H23 lung = tested on: NCI-H23 lung
HL-60(TB) leukemia = tested on: HL-60(TB) leukemia
LOX IMVI melanoma = tested on: LOX IMVI melanoma
U251 glioblastoma = tested on: U251 glioblastoma
OVCAR-3 ovarian = tested on: OVCAR-3 ovarian
SK-OV-3 ovarian = tested on: SK-OV-3 ovarian
NCI-H322M lung = tested on: NCI-H322M lung
OVCAR-5 ovarian = tested on: OVCAR-5 ovarian

## CS(=O)(=O)c1ccc(-c2cnc(NCc3ccco3)n3cnnc23)cc1
SW-620 colon
  GI50: > 100 µM
  TGI: > 100 µM
ACHN renal
  GI50: > 100 µM
  TGI: > 100 µM
DU-145 prostate
  GI50: > 100 µM
  TGI: > 100 µM
UACC-257 melanoma
  GI50: 52.1 µM
  TGI: > 100 µM
MDA-MB-435 melanoma
  GI50: > 87.3 µM
  TGI: > 100 µM
SNB-75 CNS
  GI50: > 100 µM
  TGI: > 100 µM
HT29 colon
  GI50: 61.3 µM
  TGI: > 100 µM
MALME-3M melanoma
  GI50: 16.9 µM
  TGI: 45.3 µM
HCT-116 colon
  GI50: > 100 µM
  TGI: > 100 µM
PC-3 prostate
  GI50: > 100 µM
  TGI: > 100 µM
SN12C renal
  GI50: > 100 µM
  TGI: > 100 µM
SF-295 CNS
  GI50: > 100 µM
  TGI: > 100 µM
BT-549 breast
  GI50: > 100 µM
  TGI: > 100 µM
MDA-MB-468 breast
  GI50: 17.3 µM
  TGI: 49.3 µM
CCRF-CEM leukemia
  GI50: > 85.5 µM
  TGI: > 100 µM
RXF 393 renal
  GI50: > 76.7 µM
  TGI: > 100 µM
NCI-H460 NSCLC
  GI50: > 100 µM
  TGI: > 100 µM
HOP-92 NSCLC
  GI50: > 55.1 µM
  TGI: > 100 µM
NCI-H226 lung
  GI50: > 100 µM
  TGI: > 100 µM
OVCAR-8 ovarian
  GI50: > 100 µM
  TGI: > 100 µM
786-0 renal
  GI50: > 100 µM
  TGI: > 100 µM
CAKI-1 renal
  GI50: > 100 µM
  TGI: > 100 µM
SK-MEL-2 melanoma
  GI50: > 100 µM
  TGI: > 100 µM
MCF7 breast
  GI50: > 100 µM
  TGI: > 100 µM
SK-MEL-28 melanoma
  GI50: 30.3 µM
  TGI: > 100 µM
UO-31 renal
  GI50: > 100 µM
  TGI: > 100 µM
A498 renal
  GI50: > 100 µM
  TGI: > 100 µM
SF-539 CNS
  GI50: > 100 µM
  TGI: > 100 µM
T-47D breast
  GI50: 66.3 µM
  TGI: > 100 µM
HCT-15 colon
  GI50: > 100 µM
  TGI: > 100 µM
EKVX NSCLC
  GI50: > 100 µM
  TGI: > 100 µM
M14 melanoma
  GI50: 29.6 µM
  TGI: > 100 µM
A549 NSCLC
  GI50: > 100 µM
  TGI: > 100 µM
SR leukemia
  GI50: > 100 µM
  TGI: > 100 µM
OVCAR-4 ovarian
  GI50: > 100 µM
  TGI: > 100 µM
MOLT-4 leukemia
  GI50: 49 µM
  TGI: > 100 µM
NCI/ADR-RES ovarian
  GI50: > 100 µM
  TGI: > 100 µM
HCC-2998 colon
  GI50: > 100 µM
  TGI: > 100 µM
MDA-MB-231 breast
  GI50: > 100 µM
  TGI: > 100 µM
COLO 205 colon
  GI50: 35.8 µM
  TGI: > 100 µM
KM12 colon
  GI50: > 100 µM
  TGI: > 100 µM
SNB-19 CNS
  GI50: > 100 µM
  TGI: > 100 µM
SK-MEL-5 melanoma
  GI50: 37.2 µM
  TGI: > 100 µM
HS 578T breast
  GI50: > 100 µM
  TGI: > 100 µM
UACC-62 melanoma
  GI50: 27.1 µM
  TGI: > 100 µM
RPMI-8226 leukemia
  GI50: 6.1 µM
  TGI: > 33.7 µM
K-562 leukemia
  GI50: > 95.2 µM
  TGI: > 100 µM
SF-268 CNS
  GI50: > 100 µM
  TGI: > 100 µM
HOP-62 NSCLC
  GI50: > 100 µM
  TGI: > 100 µM
IGROV1 ovarian
  GI50: > 100 µM
  TGI: > 100 µM
NCI-H522 lung
  GI50: > 100 µM
  TGI: > 100 µM
TK-10 renal
  GI50: > 100 µM
  TGI: > 100 µM
NCI-H23 lung
  GI50: > 100 µM
  TGI: > 100 µM
HL-60(TB) leukemia
  GI50: 72.2 µM
  TGI: > 100 µM
LOX IMVI melanoma
  GI50: 52.8 µM
  TGI: > 100 µM
U251 glioblastoma
  GI50: > 100 µM
  TGI: > 100 µM
OVCAR-3 ovarian
  GI50: > 100 µM
  TGI: > 100 µM
SK-OV-3 ovarian
  GI50: > 100 µM
  TGI: > 100 µM
NCI-H322M lung
  GI50: > 100 µM
  TGI: > 100 µM
OVCAR-5 ovarian
  GI50: > 100 µM
  TGI: > 100 µM
